Reference: patent publication US20230416242A1, “DOUBLE DEGRADERS AND USES THEREOF” (Kymera Therapeutics, Inc., priority 2020, published 2023)

These compounds were tested against T1, IRAK4 (Homo sapiens, UniProt Q9NWZ3) (assay: IRAK4 MSD degradation in OCI-LY10). Conditions: OCI-LY10 cells, 24 hrs, Meso Scale Discovery.
T1 construct: endogenous in cells; host or cells: OCI-LY10
T1 sequence (Q9NWZ3 1-460): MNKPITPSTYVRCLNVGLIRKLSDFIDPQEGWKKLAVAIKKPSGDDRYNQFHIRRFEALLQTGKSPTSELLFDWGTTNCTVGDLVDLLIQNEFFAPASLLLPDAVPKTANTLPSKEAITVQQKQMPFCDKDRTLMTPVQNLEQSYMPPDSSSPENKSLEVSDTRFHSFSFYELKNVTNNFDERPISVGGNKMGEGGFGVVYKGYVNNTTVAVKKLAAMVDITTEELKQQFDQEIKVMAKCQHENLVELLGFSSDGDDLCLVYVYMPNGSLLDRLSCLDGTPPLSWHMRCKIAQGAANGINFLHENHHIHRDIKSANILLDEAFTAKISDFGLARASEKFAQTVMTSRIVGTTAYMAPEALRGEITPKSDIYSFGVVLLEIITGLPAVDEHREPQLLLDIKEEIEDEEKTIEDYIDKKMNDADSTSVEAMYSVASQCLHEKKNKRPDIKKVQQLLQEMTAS
Assay type: cell-based
Experimental: Degradation of IRAK4 in OCI-LY10 was quantitatively measured using Meso Scale Discovery technology. OCI-LY10 cells were seeded in 96-well plates (Coming 3799) with a density of 300,000 cells per well in 100 μL fresh media. Compounds were then added to the assay plates with a final top concentration of 1 to 10 μM in a 1:3 dilution series with total of 8 doses. The assay plates were then incubated for 4 to 24 hours at 37° C. under 5% CO2. The assay plates were then centrifuged for 5 minutes and the cell pellets were treated with 100 μL/well RIPA lysis buffer (Boston BioProducts BP-115D) with proteinase inhibitors. To prepare MSD assay plates (Meso Scale Discovery Catalog number L15XA-3), the plates were coated with […] capture antibody (mouse Anti-IRAK4 antibody [2H9], ab119942) in PBS, at 40 μL/well. The plates were then incubated overnight at 4° C., washed 3 times with 150 μL/well TBST buffer (Cell Signaling Technology, Catalog number 9997S) and blocked with 150 μL/well blocking buffer (Meso Scale Discovery Catalog number R93BA-4). Cell lysates were then added to MSD assay plates and the plates were incubated at room temperature for 1 hour. The plates were then washed 3 times with 150 µL/well TBST buffer and 25 μL/well primary detection antibody (rabbit Anti-IRAK4 antibody [Y279], from Abcam. Catalog number ab32511, 1 μg/mL). The assay plates were then incubated at room temperature for 1 hour, washed 3 times with 150 μL/well TBST buffer and 25 μL/well secondary detection antibody, SULFO-TAG anti-rabbit antibody were added (anti rabbit antibody from Meso Scale Discovery, Catalog number R32AB-1, 1 μg/mL). The assay plates were then incubated at room temperature for 1 hour, washed 3 times with 150 μL/well TBST buffer, and 150 μL/well MSD reading buffer (Meso Scale Discovery catalog number R92TC-2) was added. The plates were then analyzed by a MSD reader (Meso Scale Discovery, Model Quick Plex SQ 120). The data was then analyzed by software Prism 7.0 from GraphPad and the dose-depended IRAK4 degradation were fit using a three-parameter logistic equation to calculate DC50.
The letter codes for IRAK4 DC50 include: A (<1 μM); B (1-10 μM); and C ([…]).

| Compound | DC50 |
| --- | --- |
| CC(C)(O)c1cc2nc([C@H]3CC[C@H](CN4CCC(CCN(CCCCN5CCC(c6ccc(Nc7nc(N8CCCCC8)cnc7C(N)=O)cc6)CC5)c5cccc6c5C(=O)N(C5CCC(=O)NC5=O)C6=O)CC4)CC3)sc2cc1NC(=O)c1cccc(C(F)(F)F)n1 (stereo partly drawn) [Compound I-5, 3-((4-(1-(4-((2-(2,6-Dioxopiperidin-3-yl)-1,3-dioxoisoindolin-4-yl)(2-(1-(((1R,4R)-4-(5-(2-hydroxypropan-2-yl)-6-(6-(trifluoromethyl)picolinamido)benzo[d]thiazol-2-yl)cyclohexyl)methyl)piperidin-4-yl)ethyl)amino)butyl)piperidin-4-yl)phenyl)amino)-5-(piperidin-1-yl)pyrazine-2-carboxamide] | < 1 µM |
| CC(C)(O)c1cc2nc([C@H]3CC[C@H](CN4CC5(CC(C(CNc6cccc7c6C(=O)N(C6CCC(=O)NC6=O)C7=O)CN6CCC(c7ccc(Nc8nc(N9CCCCC9)cnc8C(N)=O)cc7)CC6)C5)C4)CC3)sc2cc1NC(=O)c1cccc(C(F)(F)F)n1 (stereo partly shown) [Compound I-7] | 1 to 10 µM |
| CC(C)(O)c1cc2nn([C@H]3CC[C@H](CN4CCC(CCN(CCCCN5CCC(c6ccc(Nc7nc(N8CCCCC8)cnc7C(N)=O)cc6)CC5)c5cccc6c5C(=O)N(C5CCC(=O)NC5=O)C6=O)CC4)CC3)cc2cc1NC(=O)c1cccc(C(F)(F)F)n1 (stereo partly shown) [Compound I-4] | < 1 µM |
| NC(=O)c1ncc(N2CCCCC2)nc1Nc1ccc(C2CCN(CCCCN(CCC3CCN(C[C@H]4CC[C@H](n5cc(NC(=O)c6cnn7ccc(N8CCOCC8)nc67)c(C(F)F)n5)CC4)CC3)c3cccc4c3C(=O)N(C3CCC(=O)NC3=O)C4=O)CC2)cc1 (stereo partly shown) [Compound I-6] | 1 to 10 µM |
| CC(C)(O)c1cc2nn([C@H]3CC[C@H](CN4CC5(CC(C(CNc6cccc7c6C(=O)N(C6CCC(=O)NC6=O)C7=O)CN6CCC(c7ccc(Nc8nc(N9CCCCC9)cnc8C(N)=O)cc7)CC6)C5)C4)CC3)cc2cc1NC(=O)c1cccc(C(F)(F)F)n1 (stereo partly shown) [Compound I-8] | < 1 µM |

Results, then the compound that gave them:

| DC50 | Compound |
| --- | --- |
| < 1 µM | Cn1c(=O)n(C2CCC(=O)NC2=O)c2cccc(CCCCN(CCNC(=O)[C@H]3CC[C@H](n4cc5cc(NC(=O)c6cccc(C(F)(F)F)n6)c(C(C)(C)O)cc5n4)CC3)CC(=O)N3CC(N4CCC(c5ccc(Nc6nc(N7CCCCC7)cnc6C(N)=O)cc5)CC4)C3)c21 (stereo partly drawn) [Compound I-14, 3-((4-(1-(1-(2-((4-(1-(2,6-Dioxopiperidin-3-yl)-3-methyl-2-oxo-2,3-dihydro-1H-benzo[d]imidazole-4-yl)butyl)(2-((1R,4R)-4-(6-(2-hydroxypropan-2-yl)-5-(6-(trifluoromethyl)picolinamido)-2H-indazol-2-yl)cyclohexanecarboxamido)ethyl)amino)acetyl)azetidin-3-yl)piperidin-4-yl)phenyl)amino)-5-(piperidin-1-yl)pyrazine-2-carboxamide] |
| 1 to 10 µM | Cc1ncsc1-c1ccc(CNC(=O)[C@@H]2C[C@@H](O)CN2C(=O)[C@@H](NC(=O)COCCOCCN2CCC(c3ccc(Nc4nc(N5CCCCC5)cnc4C(N)=O)cc3)CC2)C(C)(C)C)c(OCCOCCN(C)C[C@H]2CC[C@H](n3cc4cc(NC(=O)c5cccc(C(F)(F)F)n5)c(C(C)(C)O)cc4n3)CC2)c1 [Compound I-17] |
| < 1 µM | Cn1c(=O)n(C2CCC(=O)NC2=O)c2cccc(CCCCN(CCNC(=O)[C@H]3CC[C@H](n4cc5cc(NC(=O)c6cccc(C(F)(F)F)n6)c(C(C)(C)O)cc5n4)CC3)CC(=O)N3CCC(c4ccc(Nc5nc(N6CCCCC6)cnc5C(N)=O)cc4)CC3)c21 (stereo partly shown) [Compound I-15] |
| < 1 µM | NC(=O)c1ncc(N2CCCCC2)nc1Nc1ccc(C2CCN(CC(CNc3cccc4c3C(=O)N(C3CCC(=O)NC3=O)C4=O)C3CC4(C3)CN(C[C@H]3CC[C@H](n5cc(NC(=O)c6cnn7ccc(N8CCOCC8)nc67)c(C(F)F)n5)CC3)C4)CC2)cc1 (stereo partly shown) [Compound I-9] |
| 1 to 10 µM | Cc1ncsc1-c1ccc(CNC(=O)[C@@H]2C[C@@H](O)CN2C(=O)[C@@H](NC(=O)COCCOCCN2CCN(C(=O)c3ccc(Nc4nc(-c5cccc(NC(=O)c6ccc(C(C)(C)C)cc6)c5C)cn(C)c4=O)cc3)CC2)C(C)(C)C)c(OCCOCCN(C)C[C@H]2CC[C@H](n3cc4cc(NC(=O)c5cccc(C(F)(F)F)n5)c(C(C)(C)O)cc4n3)CC2)c1 [Compound I-18] |
